Test results published in patent publication US12403144B2, “HECT E3 ligase inhibitors and uses thereof” (IFOM FONDAZIONE ISTITUTO FIRC DI ONCOLOGIA MOLECOLARE, priority 2019, dated 2025).
Structures can show the parent of a compound that is named as a salt.

Target: T1, untagged HECT of NEDD4 wild-type (WT) (E3 ligase) (Homo sapiens, UniProt P46934)
T1 construct: untagged HECT of NEDD4 wild-type (WT) (E3 ligase); made in house
T1 sequence (P46934 519-900 isoform P46934-4 limits assumed): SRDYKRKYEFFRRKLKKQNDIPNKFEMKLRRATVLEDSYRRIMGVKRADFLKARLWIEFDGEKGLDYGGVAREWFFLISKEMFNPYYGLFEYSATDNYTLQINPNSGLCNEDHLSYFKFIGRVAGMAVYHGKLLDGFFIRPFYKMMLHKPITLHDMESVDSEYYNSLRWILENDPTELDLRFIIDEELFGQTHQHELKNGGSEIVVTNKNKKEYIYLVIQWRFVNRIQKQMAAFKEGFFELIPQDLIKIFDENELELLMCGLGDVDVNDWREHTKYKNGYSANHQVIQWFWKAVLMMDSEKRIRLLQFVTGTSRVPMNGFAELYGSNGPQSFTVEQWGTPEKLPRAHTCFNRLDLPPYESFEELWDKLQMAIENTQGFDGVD
Assay: In vitro ubiquitination assay TR-FRET based (self-ubiquitination of NEDD4)
Assay type: biochemical
Details: at 11 μM; pre-incubated for 1 hour; AUC of 120 minutes kinetic; read-out: percentages of inhibition (NEDD4)
Text: FIG. 1: TR-FRET kinetic assay performed with compound 12. […] Reactions were initiated with the addition of ATP. As labeled ubiquitin molecules become incorporated into chains they come into close proximity, resulting in energy transfer and increased signal to background detection. The activity of the enzyme is continuously and real time detected and it is expressed as % of signal/background during the time.
In order to quantitatively measure the self-ubiquitination process of the E3 HECT ligase NEDD4 the inventors employed a TR-FRET based assay. TR-FRET technology exploits the long-lasting emission of lanthanide fluorescence to interpose a short time-delay between FRET donor excitation and emission. This phenomenon enables to isolate real fluorescent signals from short-lived background emissions, thus reducing possible interference from compounds.
In the present study, elongation of the ubiqutin chain by NEDD4 is measured by adding bacterially expressed E1, His-tagged UBE2D3 (E2) and untagged HECT of NEDD4 wild-type (WT) (E3 ligase) (named in FIG. 1 as WT) enzymes to a mixture of Eu-cryptate ubiquitin, Cy5-ubiquitin and wild-type ubiquitin, combined in a ratio optimized for TR-FRET based conjugation (100×TRF-Ubiquitin Mix, SBB-TR0051). […] Bacterially expressed E1, His-tagged UBE2D3 (E2), untagged HECT NEDD4 (E3 ligase) WT and NEDD4 C/A enzymes were produced and purified as reported in E. Maspero et al. Methods Mol Biol. 1449:153-60 (2016).
Enzymatic incorporation of the labeled TRF-Ubiquitin mix into chains leads to an increase in fluorescence emission at 665 nm (emission of the acceptor Cy5-Ubiquitin, Emacceptor) and decrease at emission wavelength 620 nm (emission of the donor Eu-cryptate Ubiquitin, Emdonor).
The assay was performed in a 384-well plate format (Optiplate, Perkin Elmer, #6007290) on an automated liquid-handler (Hamilton STAR, Hamilton Robotics, Switzerland).
All compounds were dissolved in 100% DMSO and serially diluted in 96-well plates (from 100 μM to 0.005 μM).
Briefly, all reagents were thawed and kept on ice. A master mix containing E1, E2, E3 and TRF-Ubiquitin Mix (SBB-TR0051) diluted in the assay buffer (Tris-HCl pH 7.6 25 mM, NaCl 100 mM, MgCl2 5 mM and Tween 0.01%) is prepared and 50 μl/well is dispensed in a 384 well plate. 3 μl of compounds dissolved in DMSO in the above-indicated concentration range were added and pre-incubated for 1 hour. Final E1, E2 and E3 concentrations in the assay buffer (Tris-HCl pH 7.6 25 mM, NaCl 100 mM, MgCl2 5 mM and Tween 0.01%) were 30, 350 and 50 nanomolars, respectively. The reaction was initiated with the addition of ATP (22 μl of 2 mM ATP, JenaBioscience, NU-1010) and was allowed to proceed for 120 minutes, measuring fluorescence emission at 665 nm and 620 nm in real-time on an EnSpire microplate reader (Perkin Elmer).
Kinetic raw data were analyzed by Area Under the Curve (AUC) method using Prism GraphPad software.
% signal/background corresponds to the following equation: (Experimental signal−Background signal)/Background signal×100%
Experimental signal corresponds to the signal obtained by the enzymatic reaction in presence of the vehicle (DMSO) and/or the different compound concentrations. Background signal corresponds to the signal obtained by the enzymatic reaction in absence of ATP.
The relative potency of the compounds was evaluated by dose-response curves following the enzymatic reaction of HECT NEDD4 WT in real time for 120 minutes.
Percentage of inhibition is then determined by the equation: % inhibition=100×[1−(X)/(MAX)],
where MAX correspond to AUC of the vehicle (DMSO) treated enzyme, and X corresponds to the AUC of the compound treated enzyme.

`CCONC(=O)/C=C/CNCCCCN1c2ccccc2CCc2ccc(Cl)cc21` [Compound 80, (E)-4-[4-(3-chloro-10,11-dihydro-5H-dibenzo[b,f]azepin-5-yl)butylamino]-N-ethoxy-but-2-enamide maleate] was tested. Which inhibition at 11 µM did it give?
Its inhibition at 11 µM is > 50%.

`O=C(/C=C/CNCCCN1c2ccccc2CCc2ccc(Cl)cc21)Nc1ccccc1` [Compound 21, (E)-4-{[3-(3-chloro-10,11-dihydro-5H-dibenzo[b,f]azepin-5-yl)propyl]amino}-N-phenyl-but-2-enamide hydrochloride] was tested. Which inhibition at 11 µM did it give?
The inhibition at 11 µM was < 30%.

`CCOC(=O)/C=C/CNCC(O)CN1c2ccccc2CCc2ccc(Cl)cc21` (stereo not drawn) [Compound 34, Ethyl (E)-4-{[2-hydroxy-3-(3-chloro-10,11-dihydro-5H-dibenzo[b,f]azepin-5-yl)]propylamino} but-2-enoate] was tested. Which inhibition at 11 µM did it give?
Its inhibition at 11 µM is > 50%.

Which inhibition at 11 µM does the source give for `CCOC(=O)/C=C/CNCCCN1c2cc(Cl)ccc2CCc2cn(C)nc21` [Compound 31] here?
The inhibition at 11 µM was < 30%.

Which inhibition at 11 µM does the source give for `CCOC(=O)/C=C/CNCCCN1c2ccccc2CCc2ccc(Br)cc21` [Compound 15, Ethyl (E)-4-[3-(3-bromo-10,11-dihydro-5H-dibenzo[b,f]azepin-5-yl)propylamino]but-2-enoate maleate] here?
The inhibition at 11 µM was > 50%.

`CCOC(=O)/C=C/CNCCCCN1c2ccccc2C(=O)N(CCc2ccccc2)c2ccc(Cl)cc21` [Compound 44, Ethyl (E)-4-{[4-(7-chloro-10-(2-phenylethyl)-11-oxo-10,11-dihydro-5H-dibenzo[b,e][1,4]diazepin-5-yl)butyl]amino}but-2-enoate maleate] was tested. Which inhibition at 11 µM did it give?
The inhibition at 11 µM was > 50%.

How did the inhibition at 11 µM turn out when `CON(C)C(=O)/C=C/CN(C)CCCCN1c2cc(Cl)ccc2C(=O)N(Cc2ccccc2)c2ccccc21` [Compound 59, (E)-4-{[4-(10-Benzyl-3-chloro-11-oxo-10,11-dihydro-5H-dibenzo[b,e][1,4]diazepin-5-yl)butyl](methyl)amino}-N-methoxy-N-methyl-but-2-enamide maleate] was run?
Its inhibition at 11 µM is > 50%.

`C#CCOC(=O)/C=C/CNCCCCN1c2ccccc2CCc2ccc(Cl)cc21` [Compound 91, Prop-2-yn-1-yl (E)-4-[4-(3-chloro-10,11-dihydro-5H-dibenzo[b,f]azepin-5-yl)butylamino]but-2-enoate maleate] was tested. Which inhibition at 11 µM did it give?
The inhibition at 11 µM was > 50%.

For `CCOC(=O)/C=C/CNCCCN1c2ccccc2C(=O)N(CCCO)c2ccc(Cl)cc21` [Compound 52, Ethyl (E)-4-({3-[7-chloro-10-(3-hydroxypropyl)-11-oxo-10,11-dihydro-5H-dibenzo[b,e][1,4]diazepin-5-yl]propyl}amino)but-2-enoate maleate], which inhibition at 11 µM is on record?
The inhibition at 11 µM was 30 to 50%.

`CCOC(=O)/C=C/CNCCCCN1c2cc(Cl)ccc2C(=O)N(CCCO)c2ccccc21` [Compound 48, Ethyl (E)-4-({4-[3-chloro-10-(3-hydroxypropyl)-11-oxo-10,11-dihydro-5H-dibenzo[b,e][1,4]diazepin-5-yl]butyl}amino)but-2-enoate maleate] was tested. Which inhibition at 11 µM did it give?
The inhibition at 11 µM was > 50%.

How did the inhibition at 11 µM turn out when `CNC(=O)/C=C/CNCCCN1c2ccccc2CCc2ccc(Cl)cc21` [Compound 19, (E)-4-{[3-(3-chloro-10,11-dihydro-5H-dibenzo[b,f]azepin-5-yl)propyl]amino}-N-methyl-but-2-enamide hydrochloride] was run?
The inhibition at 11 µM was < 30%.

How did the inhibition at 11 µM turn out when `NC(=O)/C=C/CNCCCN1c2ccccc2CCc2ccc(Cl)cc21` [Compound 18, (E)-4-{[3-(3-chloro-10,11-dihydro-5H-dibenzo[b,f]azepin-5-yl)propyl]amino}but-2-enamide hydrochloride] was run?
Its inhibition at 11 µM is < 30%.

Which inhibition at 11 µM does the source give for `CCOC(=O)/C=C/CNCCCN1c2ccccc2CCc2ccccc21` [Compound 11, Ethyl (E)-4-[3-(10,11-dihydro-5H-dibenzo[b,f]azepin-5-yl)propylamino]but-2-enoate fumarate] here?
Its inhibition at 11 µM is 30 to 50%.

`N#C/C=C/CNCCCCN1c2ccccc2CCc2ccc(Cl)cc21` [Compound 71, (E)-4-[4-(3-chloro-10,11-dihydro-5H-dibenzo[b,f]azepin-5-yl)butylamino]but-2-enenitrile maleate] was tested. Which inhibition at 11 µM did it give?
The inhibition at 11 µM was > 50%.

`CCOC(=O)/C=C/CNCCCN1c2cc(Cl)ccc2C(=O)N(C)c2ccccc21` [Compound 27, Ethyl (E)-4-{[3-(3-chloro-10-methyl-11-oxo-10,11-dihydro-5H-dibenzo[b,e][1,4]diazepin-5-yl)propyl]amino}but-2-enoate maleate] was tested. Which inhibition at 11 µM did it give?
Its inhibition at 11 µM is > 50%.

With `CCOC(=O)/C=C/CNCCCCN1c2ccccc2C(=O)N(CCO)c2ccc(Cl)cc21` [Compound 50, Ethyl (E)-4-({4-[7-chloro-10-(2-hydroxyethyl)-11-oxo-10,11-dihydro-5H-dibenzo[b,e][1,4]diazepin-5-yl]butyl}amino)but-2-enoate maleate] as the molecule, how does the inhibition at 11 µM read?
Its inhibition at 11 µM is > 50%.

`CC(=O)/C=C/CN(C)CCCCN1c2cc(Cl)ccc2C(=O)N(C)c2ccccc21` [Compound 57, 3-Chloro-10-methyl-5-(4-{methyl[(E)-4-oxopent-2-en-1-yl]amino}butyl)-5,10-dihydro-11H-dibenzo[b,e][1,4]diazepin-11-one maleate] was tested. Which inhibition at 11 µM did it give?
The inhibition at 11 µM was > 50%.

With `O=C(O)/C=C/CNCCCCN1c2ccccc2CCc2ccc(Cl)cc21` [Compound 17, (E)-4-[4-(3-chloro-10,11-dihydro-5H-dibenzo[b,f]azepin-5-yl)butylamino]but-2-enoic acid 2,2,2-trifluoroacetate] as the molecule, how does the inhibition at 11 µM read?
The inhibition at 11 µM was < 30%.

`O=C(/C=C/CNCCCCN1c2ccccc2CCc2ccc(Cl)cc21)NOCc1ccccc1` [Compound 79, (E)-4-[4-(3-chloro-10,11-dihydro-5H-dibenzo[b,f]azepin-5-yl)butylamino]-N-benzyloxy-but-2-enamide maleate] was tested. Which inhibition at 11 µM did it give?
The inhibition at 11 µM was > 50%.

With `C#CCOc1ccc2c(c1)CCc1ccc(Cl)cc1N2CCCCNC/C=C/C(=O)OCC` [Compound 100, Ethyl (E)-4-[4-(7-Chloro-2-prop-2-ynyloxy-10,11-dihydro-dibenzo[b,f]azepin-5-yl)-butylamino]-but-2-enoate maleate] as the molecule, how does the inhibition at 11 µM read?
Its inhibition at 11 µM is > 50%.

`CCOC(=O)/C=C/CNCCCCN1c2ccccc2NC(=O)c2ccc(Cl)cc21` [Compound 24, Ethyl (E)-4-{[4-(3-chloro-11-oxo-10,11-dihydro-5H-dibenzo[b,e][1,4]diazepin-5-yl)butyl]amino}but-2-enoate maleate] was tested. Which inhibition at 11 µM did it give?
The inhibition at 11 µM was > 50%.

Which inhibition at 11 µM does the source give for `COC(=O)/C=C/CNCCCCN1c2ccccc2CCc2ccc(Cl)cc21` [Compound 62, Methyl (E)-4-[4-(3-chloro-10,11-dihydro-5H-dibenzo[b,f]azepin-5-yl)butylamino]but-2-enoate maleate] here?
The inhibition at 11 µM was > 50%.

`CCOC(=O)/C=C/CNCCCCN1c2cc(Cl)ccc2CCc2cnn(C)c21` [Compound 43, Ethyl (E)-4-{[4-(8-chloro-1-methyl-4,5-dihydropyrazolo-[3,4-b][1]-benzazepin-10(1H)-yl)butyl]amino}but-2-enoate maleate] was tested. Which inhibition at 11 µM did it give?
Its inhibition at 11 µM is > 50%.

How did the inhibition at 11 µM turn out when `CON(C)C(=O)/C=C/CN(C)CCCCN1c2cc(Cl)ccc2COc2ccccc21` [Compound 69, (E)-4-[4-(3-Chlorodibenzo[b,e][1,4]oxazepin-5(11H)-yl)butyl-methyl-amino]-N-methoxy-N-methyl-but-2-enamide] was run?
The inhibition at 11 µM was > 50%.
